As usually defined, the AC50 is the midpoint of the concentration-response curve, whichever way the signal moves.

From PubChem BioAssay AID463206 (Broad Institute, 2010) come the findings set out here.

Molecules are shown by their SMILES. Activity calls are given as the source filed them.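 The calls were made as follows: active = caspase luminescence falls with dose and the half-maximal concentration AC50 from the fitted curve is at or below a set limit; inconclusive = flat fit at 30 to 70% signal loss, or invalid fit; inactive = AC50 above the limit, or signal rises instead.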

For this test, the system named is INS-1E cytokine-induced caspase-3/7, Caspase-Glo luminescence, 48 h. Kind of test: suppression of cytokine-driven beta-cell apoptosis – INS-1E rat cells, luminescence, orthogonal assay for beta-cell apoptosis protection project, dose response (AID 463206).

Regarding `COc1ccc(CNCCC(c2ccc(OC(C)C)cc2)c2ccccc2OC)cc1` (stereo not drawn), the AC50 was > 26 µM (inactive).
With `O=C(N/N=C/c1ccccc1O)/C(=C/c1ccccc1)CCO`, the AC50 was > 26 µM (inactive).
Under `O=S(=O)(C/C(=C/CO)S(=O)(=O)c1ccccc1)c1ccccc1` stands 4.21 µM.
Then `O=C(N/N=C/c1ccccc1)c1c(O)c2ccccc2[nH]c1=O`, with > 26 µM (inactive); and `O=NN(CCc1ccncc1)c1ccc(OCc2ccccc2)cc1`, with > 26 µM (inactive).
Under `FC(F)(F)c1cccc(-c2nc3nc(Cl)c(Cl)nc3[nH]2)c1` stands > 26 µM (inactive); under `Cc1ccc(-c2nc(N/N=C/c3cccnc3)c3ccccc3n2)cc1`, > 26 µM (inactive).
For the compound `COc1cccc(/C=N\NC(=O)c2ccc(Cn3cc(Br)c([N+](=O)[O-])n3)o2)c1O`, the AC50 was > 26 µM (inactive).
Regarding `COc1ccc2nc(/C(C#N)=C\c3ccc(Oc4ccc([N+](=O)[O-])cn4)cc3)[nH]c2c1`, the AC50 was > 26 µM (inactive).
Then `Cc1cc(=O)[nH]c(N/N=C/c2ccccn2)n1`, with > 26 µM (inactive); and `CCc1ccc2[nH]c(=O)c(C3C(C#N)=C(N)Oc4c3ccc3cccnc43)cc2c1` (stereo not drawn), with > 26 µM (inactive).
Consider `OC(CNCCC1C=Nc2ccccc21)Cn1c2ccc(Cl)cc2c2cc(Cl)ccc21` (stereo not drawn), for which the AC50 is > 26 µM (inactive).
Then `CCOC(=O)c1ccc(NC(=O)c2nc(S(=O)(=O)Cc3ccccc3)ncc2Cl)cc1`, with > 26 µM (inactive); and `CCn1c(=NC(=O)CCS(=O)(=O)c2ccccc2)sc2cccc(OC)c21`, with > 12 µM (inactive).
Then `Cc1ccc(-c2cc(-c3ccc(C)cc3)[n+](-c3ccc(C(=O)[O-])cc3)c(-c3ccc(C)cc3)c2)cc1`, with > 26 µM (inactive); and `[O-]c1ccccc1-[n+]1c(-c2ccccc2)cc(-c2ccccc2)cc1-c1ccccc1`, with > 26 µM (inactive).
For `COc1ccc(NS(=O)(=O)c2ccc(-c3coc(C)n3)cc2)cc1OC`, the AC50 was > 26 µM (inactive).
On to `COc1ccc(CC(=O)Nc2nc(-c3ccc(F)c(F)c3)cs2)cc1OC`, for which the AC50 is 26.5 µM.
Under `O=C(NC1CCCC1)c1cc(COc2ccc3ncccc3c2)on1` stands > 26 µM (inactive); under `O=C(Nc1ccc(Cc2ccncc2)cc1)c1ccc([N+](=O)[O-])o1`, > 26 µM (inactive); under `O=C1C=C(N2CCOCC2)c2ccccc2C1=O`, > 26 µM (inactive).
As to `OCc1ccc(O)c2ncccc12`, the AC50 is > 26 µM (inactive).
Under `COc1cccc(C(=O)N/N=C(/c2ccccc2)c2ccccn2)c1` stands > 26 µM (inactive).
Then `Cc1cc(C)c2c(N)c3cccc(C)c3nc2n1`, with 4.47 µM; and `CC(=O)NC(c1ccccc1)c1cc(Cl)c2cccnc2c1O` (stereo not drawn), with > 26 µM (inactive).
Under `COc1cccc(/C=N/Nc2snc(SC)c2C#N)c1O` stands > 26 µM (inactive); under `O=C(NCC1COc2ccccc2O1)c1cccc(S(=O)(=O)NCc2ccccc2)c1` (stereo not drawn), > 12 µM (inactive).
`COC(=O)c1ccc(NC(=O)c2nc(S(=O)(=O)Cc3cccc(C)c3)ncc2Cl)cc1`: the AC50 is > 26 µM (inactive).
Under `Oc1ccccc1/C=N/Nc1ncc(Br)cn1` stands > 26 µM (inactive); under `Nc1nonc1-n1nnc(C(=O)N/N=C/c2cc(Cl)ccc2O)c1CN1CCCCCC1`, > 26 µM (inactive); under `Cc1cc(C)n2nc(SCc3nnc(SCc4ccccc4C)s3)nc2n1`, > 26 µM (inactive).
Under `Cc1ccc(C(=O)Nc2nc(-c3ccccn3)cs2)s1` stands > 26 µM (inactive); under `Cc1nc2ccc(NC(=O)c3cc(S(=O)(=O)N(C)c4ccccc4)ccc3Cl)cc2s1`, > 26 µM (inactive).
Take `CC(C)CCCCCCNC(=S)Nc1ccc(S(=O)(=O)N2CCOCC2)cc1`: the AC50 is > 26 µM (inactive).
Then `CCCCCCn1ccc(=N)cc1`, with > 26 µM (inactive); and `O=C1C=C(c2ccc(F)cc2OCc2ccccc2)C[C@@H](c2ccc(Cl)cc2)C1`, with > 26 µM (inactive); and `COc1cc(/C=N/N=C(N)N)ccc1OCc1ccc(Cl)cc1`, with > 26 µM (inactive).
Under `Cc1ccc(N=Cc2c(C)[nH]n(-c3nc4ccccc4[nH]3)c2=O)cc1` stands > 26 µM (inactive); under `O=C(CNC(=O)c1ccccc1O)N/N=C/c1cc(Br)ccc1OC(=O)/C=C/c1ccco1`, > 26 µM (inactive); under `Cc1ccc(S(=O)(=O)/N=C2\C(=O)c3ccccc3C([O-])=C2n2cc[n+](CCC(C)C)c2)cc1`, > 26 µM (inactive).
Consider `COc1ccc(C(NC(=O)C(C)C)c2ccc3cccnc3c2O)cc1` (stereo not drawn), for which the AC50 was > 26 µM (inactive).
As for `COc1cnc(-c2ccccn2)nc1Sc1ccc(C)cc1`, the AC50 is > 26 µM (inactive).
Then `C/C(Cn1nnc([N+](=O)[O-])n1)=N\NC(=O)c1ccccc1Cl`, with > 26 µM (inactive).
Under `CCN(CC)c1ccc(/C=N/NC(=O)c2nnn(-c3nonc3N)c2C(C)C)c(O)c1` stands > 26 µM (inactive); under `Oc1c(Br)cc(Br)cc1/C=N/NC(=S)N[C@H]1CC2C=CC1C2` (stereo partly drawn), > 26 µM (inactive).
Then `O=C(NC(c1cccnc1)C(F)(F)F)c1cc(COc2ccc3c(c2)CCCC3)on1` (stereo not drawn), with > 26 µM (inactive); and `CC1=C(C)/C(=N\OS(=O)(=O)c2ccc(C)cc2)C=CC1=O`, with > 26 µM (inactive).
Turning to `COc1ccc(-c2sc3ccccc3c2-c2ccc(OCCN(C)C)cc2)cc1`, the AC50 is > 12 µM (inactive).
As for `O=c1cc(CSc2ccc(Cl)cc2)nc(-c2ccccn2)[nH]1`, the AC50 was > 26 µM (inactive).
On to `C#CCOCCOCCOCCNc1nc(N2CCN(C(=O)CCCCCCCCCCNC(=O)[C@@H](CCSC)n3cc(CCO)nn3)CC2)nc(N2CCN(C(=O)CCCCCCCCCCNC(=O)[C@H]([C@@H](C)CC)n3cc(CCCCCN)nn3)CC2)n1`, for which the AC50 was > 26 µM (inactive).
As for `COc1ccc(C2=Nn3c(nnc3-c3ccccc3Cl)SC2)cc1OC1CCCC1`, the AC50 is > 26 µM (inactive).
For `CCS(=O)(=O)c1ccc(OC)c(N=Nc2ccc(O)c3ncccc23)c1`, the AC50 was > 26 µM (inactive).
Consider `C=C1C(O)[C@@H]2O[C@]3(CC[C@H](/C=C/C(C)[C@@H]4CC(C)=CC5(O[C@H](C[C@@](C)(O)C(=O)O)CCC5O)O4)O3)CC[C@H]2O[C@@H]1C(O)CC(C)[C@H]1OC2(CCCCO2)CCC1C` (stereo partly drawn), for which the AC50 is > 26 µM (inactive).
`CN(C)C(=O)c1ccc(NC(=O)c2cccnc2)cc1`: the AC50 was > 26 µM (inactive).
Under `Oc1ccc(Nc2nc(-c3ccc4ccccc4c3)cs2)cc1` stands > 26 µM (inactive).
With `O=C(C(Sc1ccccc1)c1ccccc1)N1CCN(c2ccccc2F)CC1` (stereo not drawn), the AC50 is > 26 µM (inactive).
With `Cc1nc2ccccc2n1/N=C/c1ccc([N+](=O)[O-])s1`, the AC50 was > 26 µM (inactive).
Under `C/C(=N\NC(=O)c1ccccc1NC(=O)c1ccc(Cl)cc1)c1ccncc1` stands > 26 µM (inactive); under `Nc1nc(F)nc2c1ncn2[C@@H]1O[C@H](CO)[C@@H](O)[C@H]1O`, > 26 µM (inactive); under `C1CCC(C(CC2CCCCN2)C2CCCCC2)CC1` (stereo not drawn), > 26 µM (inactive).
As for `C[C@H](CO)N1C[C@H](C)[C@@H](CN(C)C(=O)NC2CCCCC2)Oc2c(NC(=O)Nc3ccc(C(F)(F)F)cc3)cccc2C1=O`, the AC50 was > 26 µM (inactive).
Then `CC(=O)N1c2ccc(S(=O)(=O)N3CCC(C(=O)N4CCN(c5cccc(C(F)(F)F)c5)CC4)CC3)cc2CC1C` (stereo not drawn), with > 26 µM (inactive); and `Nc1c(Cl)ncnc1N/N=C/c1ccccn1`, with > 26 µM (inactive); and `[O-][N+]1=c2ccc(Nc3ccccc3)cc2=NC12CCCCC2`, with > 26 µM (inactive).
Then `CCOc1ccc(-n2c(-c3ccccc3)c[n+]3c2CCCCC3)cc1`, with > 26 µM (inactive).
Regarding `O=C(N/N=C/c1cc(Br)ccc1O)C(=O)Nc1ccccc1OC(F)(F)C(F)F`, the AC50 is > 26 µM (inactive).
Under `C(/CCc1ccccc1)=N\Nc1nc2ccccc2[nH]1` stands > 26 µM (inactive).
For the compound `CN1c2ccccc2N(C)C1(C)c1ccccc1`, the AC50 was > 26 µM (inactive).
On to `CC(C)N=c1cc2n(-c3ccc(Cl)cc3)c3ccccc3nc-2cc1Nc1ccc(Cl)cc1`, for which the AC50 is > 26 µM (inactive).
Then `NC(=S)N/N=C/c1c(O)c(Br)cc2oc3c(c12)CCCC3`, with > 26 µM (inactive).
Under `Cc1ccc(NC(=O)C2CCN(S(=O)(=O)c3ccc(N4CCCC4=O)cc3)CC2)cc1Cl` stands > 26 µM (inactive).
Regarding `O=[N+]([O-])c1cc(Cl)cc(/C=N\Nc2ccccn2)c1O`, the AC50 is > 26 µM (inactive).
Regarding `Cc1ccc(S(=O)(=O)N2CCOCC2)cc1C(=O)Nc1nc(-c2ccccn2)cs1`, the AC50 was > 26 µM (inactive).
Consider `CCOc1cc(CNCCc2ccc(S(N)(=O)=O)cc2)ccc1OCc1ccc(Cl)cc1`, for which the AC50 is > 26 µM (inactive).
Take `Cc1cc(/C=C2/SC(=S)N(c3ccc([N+](=O)[O-])cc3)C2=O)c(C)n1-c1cccnc1`: the AC50 was > 26 µM (inactive).
For the compound `CC(=O)c1ccc(OCc2cc(C(=O)N3CCCCC3c3cccnc3)no2)cc1` (stereo not drawn), the AC50 is > 26 µM (inactive).
As for `CCC(=O)NC(c1ccc(C)cc1)c1cc(Cl)c2cccnc2c1O` (stereo not drawn), the AC50 was > 26 µM (inactive).
Turning to `CCCCCc1nc2c(c(=O)c3ccccc3n2C)c(=O)n1C1CCCCCC1`, the AC50 is > 26 µM (inactive).
Under `Cc1c(N/N=C(\C#N)C(=O)c2ccc(Cl)cc2)c(=O)n(-c2ccccc2)n1C` stands > 26 µM (inactive); under `O=C(Cc1ccc(Cl)cc1)c1c[nH]c(C(=O)NCc2cccnc2)c1`, > 26 µM (inactive); under `Cc1csc2c(N3CCN(C(=O)c4ccc(C(C)(C)C)cc4)CC3)ncnc12`, > 26 µM (inactive).
On to `Cc1ccc(NC(=O)C2=C(c3ccccc3)S(=O)(=O)CCS2(=O)=O)cc1`, for which the AC50 is > 26 µM (inactive).
Under `COc1ccc2c(C(=O)NCc3ccc4c(c3)OCO4)c(-c3ccc(S(C)(=O)=O)cc3)sc2c1` stands > 26 µM (inactive).
